Experimental data published in publication PMC12501029, “Discovery of a CNS active GSK3 degrader using orthogonally reactive linker screening” (Nature Communications, 2025).
≈ marks a conversion by molar mass, not a printed value. Where two headings read alike, the source gives them in different places.

Assays:
[1] = Brain binding, equilibrium dialysis; type: in vitro ADME; details: brain tissue homogenate
Description: As for plasma protein binding experiments, 96-well equilibrium dialysis apparatus was used to determine the free fraction in brain tissue homogenate for each compound (HT Dialysis LLC, Gales Ferry, CT). Membranes (12–14 kDA cut-off) were conditioned in deionised water for 60 min, followed by conditioning in 80:20 deionised water: ethanol for 20 min, and then rinsed in isotonic buffer before use. Frozen brain tissue was thawed and homogenised in artificial CSF at a ratio of 3:1. Homogenate was then spiked with test compound (final concentration 10 μg/mL), and 150 μL aliquots (n = 6 replicate determinations) loaded into the 96-well equilibrium dialysis plate. Dialysis vs artificial CSF was carried out for 5 h in a temperature-controlled incubator at ca. 37 °C (Barworld Scientific Ltd, UK) using an orbital microplate shaker at 100 revolutions/minute (Barworld Scientific Ltd, UK). 150 μL aliquots of spiked homogenate were stored at 37 °C and 4 °C for the course of the experiment to determine recovery. At the end of the incubation period, 50 μL aliquots of homogenate or buffer were transferred to a 96 deepwell plate (Waters^TM) and the composition in each was balanced with control fluid (50 μL), such that the volume of buffer to brain homogenate is the same. Sample extraction was performed by the addition of 200 μL of acetonitrile containing an appropriate internal standard. Samples were allowed to mix for 1 min and then centrifuged at 3000 rpm in 96-well blocks for 15 min (Allegra X12-R, Beckman Coulter, USA), after which 150 μL of supernatant was removed to 50 μL of water. All samples were analysed by UPLC-MS/MS. The unbound fraction was determined as the ratio of the peak area in buffer to that in homogenate using the following equation:2 Afu=Buffer/Matrix where Afu means apparent fraction unbound
Buffer = Analyte/IS ratio in buffer side […]
The recovery of the dialysed samples was calculated by comparing the sum of the peak areas (buffer and matrix) of any test compound at 37 °C to that of the same compound at 4 °C. […]

[2] = target: T1, GSK3β-HiBiT (GSK3β-HiBiT KI HEK293 cells) (Homo sapiens, UniProt P49841); assay: HiBiT lytic degradation assay / high-throughput screen, 24 h; type: cell-based; details: 24 h treatment; for DC50: pure (resynthesised, HPLC purified) compound
T1 construct: we generated endogenously tagged GSK3β-HiBiT knock-in (KI) HEK293 cells; endogenous in cells; host or cells: GSK3β-HiBiT knock-in HEK293 cells (CRISPR/Cas9, single-cell clone)
T1 sequence (P49841 whole entry): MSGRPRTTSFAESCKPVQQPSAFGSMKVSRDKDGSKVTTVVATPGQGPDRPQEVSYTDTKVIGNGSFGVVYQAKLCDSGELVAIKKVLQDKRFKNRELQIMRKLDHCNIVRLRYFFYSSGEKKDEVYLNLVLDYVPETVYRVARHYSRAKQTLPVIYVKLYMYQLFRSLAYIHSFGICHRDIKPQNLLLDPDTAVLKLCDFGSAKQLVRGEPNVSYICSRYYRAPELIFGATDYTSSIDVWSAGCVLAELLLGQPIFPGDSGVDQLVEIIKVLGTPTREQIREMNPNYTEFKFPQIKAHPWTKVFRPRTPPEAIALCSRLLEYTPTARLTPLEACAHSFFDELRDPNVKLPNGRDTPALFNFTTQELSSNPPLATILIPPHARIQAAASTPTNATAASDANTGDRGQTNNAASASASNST
Description: Crude compounds were assumed to be 10 mM concentration in DMSO and after generating libraries directly used in biological tests in degradation screens. Stock solutions were serially diluted into white bottom opaque 384-well plates (Perkin Elmer) using Echo500 (Labcyte) and DMSO was backfilled to maintain same DMSO content in each well for all concentrations. […] HiBiT lytic assay buffer (Promega) prepared according to the manufacturer’s instructions and added onto each well using Multidrop^TM Combi reagent dispenser. Luminescence signal was measured on PheraStar plate reader (BMG) and obtained data normalised to DMSO conditions using Excel and further analysed using GraphPad Prism (v10.1.2) and degradation curves were generated using 4-parameter non-linear regression fit to calculate DC50 and Dmax values. Data points associated with concentrations displaying a hook effect were excluded prior to DC50 and Dmax calculation.

[3] = Intrinsic clearance (Cli), human liver microsomes; type: in vitro ADME; details: 0.5 µM, scaling factor 40 mg microsomal protein per g liver
Description: (§1) Test compound (0.5 µM) was incubated with female CD1 mouse, male rat Han Wistar and pooled human liver microsomes (Xenotech^TM; 0.5 mg/mL 50 mM potassium phosphate buffer, pH7.4) and the reaction started with addition of excess NADPH (8 mg/mL 50 mM potassium phosphate buffer, pH7.4). Immediately, at time zero, then at 3, 6, 9, 15 and 30 min an aliquot (50 µL) of the incubation mixture was removed and mixed with acetonitrile (100 uL) to stop the reaction. An internal standard was added to all samples, the samples centrifuged to sediment precipitated protein and the plates then sealed prior to UPLC-MSMS analysis (Xevo TQ-S Micro, Waters^TM). XLfit (IDBS, UK) was used to calculate the exponential decay and consequently the rate constant (k) from the ratio of peak area of test compound to internal standard at each timepoint. The rate of intrinsic clearance (CLi) of each test compound was then calculated using the following calculation:1 CLi(mL/min/gliver)=kxVxMicrosomalproteinyield Where V (mL/mg protein) is the incubation volume/mg protein added and microsomal protein yield is taken as 48 mg, 46 mg and 40 mg protein/g liver for mouse, rat and human, respectively. Verapamil (0.5 µM) was used as a positive control to confirm acceptable assay performance.

[4] = RealSOL kinetic solubility; type: physicochemical; details: PBS pH 7.4, 24 h, 25 °C; for solubility kinetic at 24 h: phosphate buffered saline, aqueous buffer, kinetic from dmso stock
Description: Solubility was assessed using an 'in-house' developed method known as 'RealSOL'. This solubility method measures the solubility in physiological strength phosphate buffered saline starting from 10 mM DMSO solutions of the test compounds. Although a 'kinetic'^[1] solubility method, the long shaking times appears to give solubility values that reflect more closely those made from solid samples when compared to a previous nephelometric method (unpublished in-house data).
Test compounds were dissolved in DMSO to give 10 mM solutions. Solubility test samples were prepared by adding a volume (5 µL) of the 10 mM solution to a volume (195 µL) of phosphate buffered saline, pH 7.4 (Sigma-Aldrich, Cat no. P4417, made as per manufacturer’s instructions). This solution was then mixed for 24 h (rotary mixing, 900 rpm, 25 °C) excluding light.
After mixing, the solubility test samples were filtered to remove any undissolved material using a proprietary filter (Millipore Multiscreen HTS filter, 96-well format). Samples were drawn through the filter using a vacuum.
The filtrate from the above was analysed for dissolved drug compound using a truncated UHPLC methodology. A Shimadzu Nexera X2 UHPLC system was used, with a reversed-phase column and a simple formic acid gradient elution. The UHPLC parameters are shown in Supporting Information Table 5.
A calibration solution was prepared in the following way: the same 10 mM solution used to prepare the solubility test sample was diluted in DMSO to give a 500 µM solution. This solution was then again diluted with 50:50 acetonitrile: water to give a 50 µM solution. Aliquots (0.2, 2.0 and 5.0 µL) of this 50 µM solution were then injected onto the UHPLC system and the areas of the resultant peaks integrated to produce a calibration line. Aliquots of the test sample filtrate (0.4 and 5.0 µL) were then injected onto the UHPLC system and the resultant peak areas for any peaks corresponding to the test compound determined and quantified using the calibration line (the injection volume that gave a peak area closest to the calibrated range was used for determining solubility).

[5] = Intrinsic clearance (Cli), mouse liver microsomes; type: in vitro ADME; details: 0.5 µM, scaling factor 48 mg microsomal protein per g liver
Description: as §1

[6] = HEK293, crude mixture, stock assumed 10 mM
[7] = HEK293, pure (resynthesised, HPLC purified) compound
[8] = 10 μg/mL, 5 h dialysis, read-out: Brain Tissue Binding (Fu)

SMILES	fraction unbound at 5 h, 10 μg/mL ([1]; brain binding, read-out: measured free fraction in brain)	Dmax [2, 6]	Dmax [2, 7]	DC50 ([2]; listed as KH1 (24))	Scaled Microsomal Stability HuClint [3]	RealSol [4]	solubility kinetic at 24 h [4]	Scaled Microsomal Stability MuClint [5]	fraction unbound at 5 h, 10 μg/mL [1, 8]	DC50 ([2]; listed as KH2 (26))
Cn1nc(N2CCC(=O)NC2=O)c2ccc(CN3CCN(Cc4ccc(-c5cn(-c6ccc(-c7cn8nccc(C(=O)Nc9cnccc9N9CCOCC9)c8n7)cc6)nn5)nc4)CC3)cc21 [compound 24]	0.0012	91%	93%	picomolar to single-digit nanomolar range	0.88 ml/min/g liver	low micromolar range	2.7 µM (≈ 2.43 µg/mL)	2.4 ml/min/g liver	–	–
Cn1nc(N2CCC(=O)NC2=O)c2ccc(CN3CCN(CCCc4cn(-c5ccc(-c6cn7nccc(C(=O)Nc8cnccc8N8CCOCC8)c7n6)cc5)nn4)CC3)cc21 [compound 26]	–	78%	80%	–	1.6 ml/min/g liver	low micromolar range	2.3 µM (≈ 1.95 µg/mL)	4.0 ml/min/g liver	0.012	picomolar to single-digit nanomolar range
O=C1CCC(NC(=O)c2ccc(CN3CCN(Cc4ccc(-c5cn(-c6ccc(-c7cn8nccc(C(=O)Nc9cnccc9N9CCOCC9)c8n7)cc6)nn5)nc4)CC3)cn2)C(=O)N1 (stereo not shown) [compound 22]	–	89%	87%	–	3.6 ml/min/g liver	–	< 1 µM	< 0.53 ml/min/g liver	0.0029	–
